Experimental data as given in US5138069A (E. I. Du Pont de Nemours and Company, priority 1988, dated 1992).
Read-outs that look alike come from different tables or passages of the source.

Tests used:
Renal Hypertensive Rats = experiment: Antihypertensive effects in renal hypertensive rats; assay type: in vivo; conditions: Rattus norvegicus; for minimal effective dose at 10 mg/kg / minimal effective dose at 100 mg/kg: Table 25; for minimal effective dose at 10 mg/kg / minimal effective dose at 3 mg/kg: intravenous; for minimal effective dose at 10 mg/kg: 10 mg/kg or less; for minimal effective dose at 100 mg/kg / minimal effective dose at 30 mg/kg: oral; for minimal effective dose at 100 mg/kg: 100 mg/kg or less; for minimal effective dose at 3 mg/kg / minimal effective dose at 30 mg/kg: Table 26
Summary of the method: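 Renal hypertensive rats (renin-driven AII elevation) dosed orally at 100 mg/kg and/or i.v. via jugular cannula at 10 mg/kg; a second set used 30 mg/kg oral and 3 mg/kg i.v. Arterial pressure recorded continuously via carotid cannula and compared with pretreatment levels.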

AII receptor = experiment: Angiotensin II receptor binding (displacement of 3H-AII); conditions: read-out: Angiotensin II Receptor Binding IC50, rat adrenal cortical microsomes, 2 nM 3H-AII, 1 hour, room temperature
Experimental: The assay was carried out according to the method described by [Glossmann et al., J. Biol. Chem., 249, 825 (1974)], but with some modifications. The reaction mixture contained rat adrenal cortical microsomes (source of AII receptor) in Tris buffer and 2 nM of ^3 H-AII with or without potential AII antagonist. This mixture was incubated for 1 hour at room temperature and the reaction was subsequently terminated by rapid filtration and rinsing through glass micro-fibre filter. Receptor-bound ^3 H-AII trapped in filter was quantitated by scintillation counting.
Compounds listed in Table 26 were tested in the same manner as described for Table 25, except that in the test for antihypertensive effects in renal hypertensive rats, the compounds were administered orally at 30 mg/kg and intravenously at 3 mg/kg.

[1] = Table 25, tested as sodium salt

CCCCc1nc(Cl)c(C(=O)O)n1Cc1ccc(-c2ccccc2C(=O)O)cc1 [Example 240, 1-[(2'-Carboxybiphenyl-4-yl)methyl]-2-butyl-4-chloroimidazole-5-carboxylicacid]
minimal effective dose at 10 mg/kg (Renal Hypertensive Rats): < 10 mg/kg | IC50 (AII receptor; Table 25): 92 nM

CCCCc1nc(Cl)c(CC(=O)OC)n1Cc1ccc(NC(=O)c2ccccc2-c2ccccc2C(=O)O)cc1 [Example 5]
minimal effective dose at 100 mg/kg (Renal Hypertensive Rats; tested as sodium salt): > 100 mg/kg | IC50 (AII receptor; [1]): 190 nM

CCCCc1ncc(CO)n1Cc1ccc(NC(=O)c2ccccc2NS(=O)(=O)C(F)(F)F)cc1 [Example 53C]
minimal effective dose at 10 mg/kg (Renal Hypertensive Rats): < 10 mg/kg | IC50 (AII receptor; Table 25): 210 nM

CCCCc1nc(C(F)(F)F)c(C(=O)OC)n1Cc1ccc(-c2ccccc2-c2nnn[nH]2)cc1 [Example 140H]
minimal effective dose at 3 mg/kg (Renal Hypertensive Rats): < 3 mg/kg | minimal effective dose at 30 mg/kg (Renal Hypertensive Rats): < 30 mg/kg | IC50 (AII receptor; Table 26): 76 nM

CCCCc1nc(CNC(=O)OCCC)c(Cl)n1Cc1ccc(-c2ccccc2C(=O)O)cc1 [Example 162]
minimal effective dose at 10 mg/kg (Renal Hypertensive Rats; tested as sodium salt): < 10 mg/kg | minimal effective dose at 100 mg/kg (Renal Hypertensive Rats; tested as sodium salt): < 100 mg/kg | IC50 (AII receptor; [1]): 140 nM

CCc1nccn1Cc1ccc(NC(=O)c2ccccc2NS(=O)(=O)C(F)(F)F)cc1 [Example 57]
minimal effective dose at 10 mg/kg (Renal Hypertensive Rats): < 10 mg/kg | minimal effective dose at 100 mg/kg (Renal Hypertensive Rats): > 100 mg/kg | IC50 (AII receptor; Table 25): 4900 nM

CCCCc1nc(Cl)c(CC(=O)O)n1Cc1ccc(OCc2ccccc2C(=O)O)cc1 [Example 192, 1-[4-(2-Carboxybenzyloxy)benzyl]-2-butyl-4-chloroimidazole-5-acetic acid]
minimal effective dose at 100 mg/kg (Renal Hypertensive Rats): > 100 mg/kg | IC50 (AII receptor; Table 25): 2300 nM

CCCc1nc(C(F)(F)C(F)(F)C(F)(F)F)c(CO)n1Cc1ccc(-c2ccccc2-c2nnn[nH]2)cc1 [Example 124K]
minimal effective dose at 3 mg/kg (Renal Hypertensive Rats): < 3 mg/kg | minimal effective dose at 30 mg/kg (Renal Hypertensive Rats): < 30 mg/kg | IC50 (AII receptor; Table 26): 13 nM

CCCCOC(=O)NCc1c(Cl)nc(CCCC)n1Cc1ccc(-c2ccccc2C(=O)O)cc1 [Example 153]
minimal effective dose at 10 mg/kg (Renal Hypertensive Rats; tested as sodium salt): < 10 mg/kg | minimal effective dose at 100 mg/kg (Renal Hypertensive Rats; tested as sodium salt): < 100 mg/kg | IC50 (AII receptor; [1]): 200 nM

CCCCc1nc(I)c(CO)n1Cc1ccc(-c2ccccc2C(=O)O)cc1 [Example 102]
minimal effective dose at 10 mg/kg (Renal Hypertensive Rats): < 10 mg/kg | minimal effective dose at 100 mg/kg (Renal Hypertensive Rats): < 100 mg/kg | IC50 (AII receptor; Table 25): 61 nM

CCCCc1nc(Cl)c(/C=C/CO)n1Cc1ccc(NC(=O)c2ccccc2NS(=O)(=O)C(F)(F)F)cc1 [Example 233, 3-[1-(4-((N-trifluoromethanesulfonyl)-anthranilamido)benzyl)-2-butyl-4-chloroimidazol-5-yl]-propen-1-ol, E isomer]
minimal effective dose at 10 mg/kg (Renal Hypertensive Rats): < 10 mg/kg | minimal effective dose at 100 mg/kg (Renal Hypertensive Rats): < 100 mg/kg | IC50 (AII receptor; Table 25): 600 nM

CCCCc1nc(Cl)c(CC(=O)OC)n1Cc1ccc(NC(=O)c2c(Cl)ccc(Cl)c2C(=O)O)cc1 [Example 16]
minimal effective dose at 10 mg/kg (Renal Hypertensive Rats): < 10 mg/kg | minimal effective dose at 100 mg/kg (Renal Hypertensive Rats): > 100 mg/kg | IC50 (AII receptor; Table 25): 18 nM

CCCCc1nc(Cl)c(COC)n1Cc1ccc(N(C)C(=O)c2c(Cl)ccc(Cl)c2C(=O)O)cc1 [Example 77, 2-n-Butyl-4-chloro-5-methoxymethyl-1-[4-(N-methyl-2-carboxy-3,6-dichlorobenzamid)benzyl]imidazole]
minimal effective dose at 10 mg/kg (Renal Hypertensive Rats; tested as sodium salt): > 100 mg/kg | minimal effective dose at 100 mg/kg (Renal Hypertensive Rats; tested as sodium salt): > 100 mg/kg | IC50 (AII receptor; [1]): 5700 nM

CCCCc1nc(Cl)c(CNC(=O)OC23CC4CC(CC(C4)C2)C3)n1Cc1ccc(-c2ccccc2C(=O)O)cc1 [Example 154]
minimal effective dose at 10 mg/kg (Renal Hypertensive Rats; tested as sodium salt): < 10 mg/kg | minimal effective dose at 100 mg/kg (Renal Hypertensive Rats; tested as sodium salt): < 100 mg/kg | IC50 (AII receptor; [1]): 600 nM

CCCCc1nc(CO)c(Cl)n1Cc1ccc(-c2ccccc2-c2[nH]nnc2C(=O)OC)cc1 [Example 339, 2-n-Butyl-5-chloro-1-[(2'-(5-carbomethoxy-1,2,3-triazol-4-yl)biphenyl-4-yl)-methyl]-5-hydroxymethylimidazole]
minimal effective dose at 3 mg/kg (Renal Hypertensive Rats): < 3 mg/kg | minimal effective dose at 30 mg/kg (Renal Hypertensive Rats): < 30 mg/kg | IC50 (AII receptor; Table 26): 1700 nM

CCCCCCCc1nc(Cl)c(CO)n1Cc1ccc(NC(=O)c2ccccc2NS(=O)(=O)C(F)(F)F)cc1 [Example 54, 4-Chloro-2-heptyl-5-hydroxymethyl-1-[4-((N-trifluoromethanesulfonyl)-anthranilamido)benzyl]imidazole]
minimal effective dose at 10 mg/kg (Renal Hypertensive Rats): < 10 mg/kg | IC50 (AII receptor; Table 25): 7200 nM

CCCc1nc(C(F)(F)F)c(CO)n1Cc1ccc(-c2ccccc2-c2nn[nH]n2)cc1 [Example 124D]
minimal effective dose at 3 mg/kg (Renal Hypertensive Rats): < 3 mg/kg | minimal effective dose at 30 mg/kg (Renal Hypertensive Rats): < 30 mg/kg | IC50 (AII receptor; Table 26): 6 nM

CCCCc1nc(C(F)(F)C(F)(F)F)c(C(=O)O)n1Cc1ccc(-c2ccccc2-c2nn[nH]n2)cc1 [Example 265B]
minimal effective dose at 3 mg/kg (Renal Hypertensive Rats): < 3 mg/kg | minimal effective dose at 30 mg/kg (Renal Hypertensive Rats): < 30 mg/kg | IC50 (AII receptor; Table 26): 1400 nM

CCCCc1nc(Cl)c(CC(=O)OC)n1Cc1ccc(N(Cc2ccccc2)C(=O)c2ccccc2NS(=O)(=O)C(F)(F)F)cc1 [Example 76, Methyl 2-butyl-1-[4-(N-benzyl-N-(2-(trifluoromethanesulfonamido)benzoyl)-amino)benzyl]-4-chloroimidazole-5-acetate]
minimal effective dose at 10 mg/kg (Renal Hypertensive Rats; tested as sodium salt): < 10 mg/kg | minimal effective dose at 100 mg/kg (Renal Hypertensive Rats; tested as sodium salt): > 100 mg/kg | IC50 (AII receptor; [1]): 2700 nM

CCCCc1nc(Cl)c(CC(=O)OC)n1Cc1ccc(NC(=O)c2ccccc2NS(=O)(=O)C(F)(F)F)cc1 [Example 30, Methyl 2-butyl-4-chloro-1-[4-((N-trifluoromethanesulfonyl)anthranilamido)benzyl]-imidazole-5-acetate]
minimal effective dose at 10 mg/kg (Renal Hypertensive Rats; tested as sodium salt): < 10 mg/kg | minimal effective dose at 100 mg/kg (Renal Hypertensive Rats; tested as sodium salt): < 100 mg/kg | IC50 (AII receptor; [1]): 390 nM

CSc1ncc(CO)n1Cc1ccc(NC(=O)c2ccccc2C(=O)O)cc1 [Example 72, 1-[4-(2-Carboxybenzamido)-benzyl]-5-hydroxymethyl-2-(methylthio)-imidazole]
minimal effective dose at 10 mg/kg (Renal Hypertensive Rats): < 10 mg/kg | minimal effective dose at 100 mg/kg (Renal Hypertensive Rats): > 100 mg/kg | IC50 (AII receptor; Table 25): 6500 nM

CCCCc1ncc(CO)n1-c1ccc(NC(=O)c2ccccc2NS(=O)(=O)C(F)(F)F)cc1 [Example 326, 2-n-butyl-5-hydroxymethyl-1-[4-((N-trifluoromethanesulfonyl)anthranilamido)phenyl]imidazole]
minimal effective dose at 10 mg/kg (Renal Hypertensive Rats): < 10 mg/kg | IC50 (AII receptor; Table 25): 790 nM

CCCCc1nc(Cl)c(CCCF)n1Cc1ccc(-c2ccccc2C(=O)O)cc1 [Example 292]
minimal effective dose at 10 mg/kg (Renal Hypertensive Rats): < 10 mg/kg | minimal effective dose at 100 mg/kg (Renal Hypertensive Rats): < 100 mg/kg | IC50 (AII receptor; Table 25): 700 nM

CCCCc1nc(Cl)c(CNC(=O)NC)n1Cc1ccc(-c2ccccc2C(=O)O)cc1 [Example 166]
minimal effective dose at 10 mg/kg (Renal Hypertensive Rats; tested as sodium salt): < 10 mg/kg | minimal effective dose at 100 mg/kg (Renal Hypertensive Rats; tested as sodium salt): > 100 mg/kg | IC50 (AII receptor; [1]): 240 nM

CCCc1nc(C(F)(F)C(F)(F)C(F)(F)C(F)(F)F)c(CO)n1Cc1ccc(-c2ccccc2C(=O)O)cc1 [Example 124H]
minimal effective dose at 3 mg/kg (Renal Hypertensive Rats): < 3 mg/kg | minimal effective dose at 30 mg/kg (Renal Hypertensive Rats): < 30 mg/kg | IC50 (AII receptor; Table 26): 290 nM

CCCCc1nc(Cl)c(CC(=O)OC)n1Cc1ccc(NC(=O)c2c(C(=O)O)cccc2[N+](=O)[O-])cc1 [Example 7]
minimal effective dose at 10 mg/kg (Renal Hypertensive Rats): < 10 mg/kg | minimal effective dose at 100 mg/kg (Renal Hypertensive Rats): > 100 mg/kg | IC50 (AII receptor; Table 25): 420 nM

CCCCc1nc(Cl)c(CO)n1Cc1ccc(-c2cccc(C)c2C(=O)O)cc1 [Example 106]
minimal effective dose at 10 mg/kg (Renal Hypertensive Rats): < 10 mg/kg | minimal effective dose at 100 mg/kg (Renal Hypertensive Rats): < 100 mg/kg | IC50 (AII receptor; Table 25): 1900 nM

CCCCc1nc(C(F)(F)C(F)(F)F)c(CO)n1Cc1ccc(-c2ccccc2-c2nn[nH]n2)cc1 [Example 124E]
minimal effective dose at 3 mg/kg (Renal Hypertensive Rats): < 3 mg/kg | minimal effective dose at 30 mg/kg (Renal Hypertensive Rats): < 30 mg/kg | IC50 (AII receptor; Table 26): 7 nM

CCCc1nc(C(F)(F)C(F)(F)C(F)(F)F)c(CO)n1Cc1ccc(-c2ccccc2C(=O)O)cc1 [Example 124G]
minimal effective dose at 3 mg/kg (Renal Hypertensive Rats): < 3 mg/kg | minimal effective dose at 30 mg/kg (Renal Hypertensive Rats): < 30 mg/kg | IC50 (AII receptor; Table 26): 74 nM

CCCCc1nc(CNC(=O)OC)c(Cl)n1Cc1ccc(-c2ccccc2C(=O)O)cc1 [Example 160]
minimal effective dose at 10 mg/kg (Renal Hypertensive Rats; tested as sodium salt): < 10 mg/kg | minimal effective dose at 100 mg/kg (Renal Hypertensive Rats; tested as sodium salt): < 100 mg/kg | IC50 (AII receptor; [1]): 120 nM

CCCCc1nc(Cl)c(C=O)n1Cc1cccc(-c2ccccc2-c2nnn[nH]2)c1 [Example 140L]
minimal effective dose at 3 mg/kg (Renal Hypertensive Rats): < 3 mg/kg | minimal effective dose at 30 mg/kg (Renal Hypertensive Rats): < 30 mg/kg | IC50 (AII receptor; Table 26): 5700 nM
